{"source": "patent US20220213030A1", "about": "“AMINOGUANIDINE HYDRAZONES AS RETROMER STABILIZERS USEFUL FOR TREATING NEUROLOGICAL DISEASES” (OSPEDALE SAN RAFFAELE SRL, priority 2019, published 2022)", "key": {"[1]": {"test_system": "Neuro2a cells transfected with G93A plasmids", "experiment": "Cell survival (CCK8) of Neuro2a transfected with G93A plasmids", "format": "cell-based, mouse", "conditions": "10 μM", "text": "Pathological alteration of the Golgi apparatus, such as its fragmentation, has been described in many neurodegenerative disorders including ALS. Neuro2a cells transfected with plasmids encoding the G93A mutant form of the SOD1 show alteration of the Golgi transport (Soo, Halloran et al. 2015). Along the same lines, Golgi fragmentation precedes neuromuscular denervation and axon retraction in ALS mice (van Dis, Kuijpers et al. 2014). We transfected Neuro2a cells with plasmids encoding the G93A mutant form of the human SOD1 gene (hereafter G93A) in presence or in absence of compound 2a (10 μM). Cells were harvested after 48 hours, labelled for Golgin-97 and scored for the distribution of trans-Golgi. […] Of note, the fragmentation of Golgi in cells receiving G93A plasmids was not depending on Golgin97 expression levels (FIG. 3A). We speculated that Golgi fragmentation may exacerbate cell death in this cell line. Therefore, we assayed cell survival of Neuro2a transfected with G93A plasmids. Accordingly, cells were transfected with G93A plasmids or with a control plasmid encoding the LacZ. […] Rates of cell survival were similar among controls—i.e. cells receiving LacZ plasmids or compound 2a—when compared with untreated cells. On the other hand, the over-expression of G93A plasmids affected Neuro2a cell survival. […]"}, "[2]": {"test_system": "Cathepsin D (CTSD)", "experiment": "Cathepsin D expression and maturation in G93A mice", "format": "in vivo, mouse", "conditions": "10 mg/kg, day 100", "text": "We next investigated Cathepsin D (CTSD) expression and distribution in G93A mice, since it is known that the trafficking of this lysosomal enzyme involves the retromer complex (Seaman 2004). In humans, maturation of CTSD starts with a pre-pro-CTSD that is converted to pro-CTSD (52 kDa) in the endoplasmic reticulum. Recycling of pro-CTSD, and its downstream migration to acidic compartments involves CI-MPR and the retromer pathway. In late endosomes, pro-CTSD is further processed to an intermediate form (48 kDa), and finally converted to mature CTSD (34 kDa) in lysosomes (Laurent-Matha 2006). The inactivation of VPS35 or the knockdown of VPS26 affect the maturation of CTSD. We scored CTSD levels in equal amounts of lumbar SC extracts obtained from vehicle-treated WT, G93A mice receiving the vehicle, and G93A treated with lead 2a. […] We next analyzed CTSD levels in MNs by confocal microscopy. We observed a significant reduction of this protease in MNs of vehicle-treated G93A, while such levels increased in G93A mice treated with compound 2a (FIG. 11F). Similarly, numbers of CTSD^+ puncta in lumbar NeuN^+ MNs were reduced in vehicle-treated G93A MNs, while they increased in compound 2a-treated mice (FIG. 11F).\nFluorescence intensity levels of VPS35, VPS26, Sortilin, CTSD and Ubiquitin were calculated using NHI-Image J software (US National Institutes of Health) according to the following protocol: stacks of confocal images were used to generate the maximal projections (Las-X) and then post-processed by NHI-Image J to crop single NeuN^+ MNs from the ventral horn of the spinal cord. We next performed background (calculated on adjacent slices only receiving secondary antibodies) subtraction for each channel, before applying the NHI-Image J mean filter (with radius 2.0 pixels) to calculate mean NeuN fluorescence levels in individual MN. Using this approach, we established a region of interest (ROI) that gated single MN. On this selected ROI, we calculated mean fluoresce levels (MFI) of each protein."}, "[3]": {"test_system": "lysosomes in Neuro2a cells receiving G93A plasmids", "experiment": "Lyso-tracker analysis of lysosomes in G93A-transfected Neuro2a", "format": "cell-based, mouse", "conditions": "10 μM, 24 hours of starvation", "protocol": "We next determined whether a reduction of VPS35 levels in Neuro2a cells could affect lysosomal homeostasis, mimicking what we and others observed in the ALS mouse model (Cheng 2018). We transfected Neuro2a cells with plasmids encoding the Sh56 RNAi to downregulate VPS35. After 24 hours of starvation, we analyzed the lysosomes using the Lyso-tracker. We observed an enlarged and abnormal distribution of lysosomes in cells with VPS35 interference by Sh56 (FIG. 15A-C). […] We asked whether G93A plasmids would also result in similar lysosomal alterations. We transfected Neuro2a cells with plasmids encoding G93A, with or without compound 2a (10 μM). After 24 hours of starvation, we monitored the lysosomes in such cells with the Lyso-tracker."}, "[4]": {"test_system": "TNFα", "experiment": "LPS-mediated TNFα release in Raw 264.7 cells (ELISA)", "format": "cell-based, murine", "conditions": "10 μM for 1 hour, then LPS 100 ng/ml, 4 hours", "text": "We observed that the molecular structure featuring compound 2a is reminiscent of the patented compound CNI-1493 (N,N′-bis [3,5 -bis [1(aminoiminomethyl) hydrazono]ethyl]phenyl]decanediamide tetrahydrochloride (CAS Reg. No. 164301-51-3)), (FIG. 16A). CNI-1493 inhibits macrophage activation in the animal model of Multiple Sclerosis producing a general amelioration of clinical and pathological outcomes of these mice (Martiney, Rajan et al. 1998). […] CNI-1493 suppresses the production of pro-inflammatory cytokines, belonging to the plethora of detrimental signals that accompany neurodegenerative processes in several disorders. […] We followed experimental procedures published by Bianchi and colleagues that describe the ability of CNI-1493 to blunt the production of this cytokine (Bianchi, Bloom et al. 1996). Cells were incubated with CNI-1493 (10 μM) or with compound 2a (10 μM) for 1 hour and then we added the LPS (100 ng/ml) to media. We next collected supernatants (4 hours after the LPS stimulation) form cells for the evaluation of TNFα levels.\nRaw 264.7 cells (10^5/well) were treated with compound 2a, CNI-1493 or vehicle for 1 hour then we applied LPS (100 ng/ml) and supernatants were collected after 4 hours. […] Concentrations of TNFα were calculated according to a standard curve and expressed as nanograms per […]. […]"}}, "note": "“Also recorded” adds a separate entry of the source."}
{"smiles": "N=C(N)NN=Cc1cccc(C=NNC(=N)N)c1", "note": "[Compound 2a, 1,3-Bis-amino guanidine phenyl hydrazone]", "values": [{"measurement": "cell survival of G93A-transfected cells", "setting": "[1]", "result": "significantly reverted this phenotype"}, {"measurement": "cell survival of cells transfected with G93A and Sh56 (VPS35 RNAi) plasmids", "setting": "[1]; VPS35 knock down", "result": "substantially affected the capability of compound 2a to revert this phenotype"}, {"measurement": "CTSD levels in MNs (confocal MFI)", "setting": "[2]", "result": "increased"}, {"measurement": "levels of mature CTSD (WB, lumbar SC extracts)", "setting": "[2]", "result": "significantly increased"}, {"measurement": "numbers of CTSD+ puncta in lumbar NeuN+ MNs", "setting": "[2]", "result": "increased"}, {"measurement": "enlarged lysosomes (Lyso-tracker-covered areas)", "setting": "[3]", "result": "significantly reverted this phenotype"}, {"measurement": "TNFα levels in supernatants", "setting": "[4]", "result": "did not show any reduction of TNFα; also recorded: did not inhibit TNFα release"}]}
